# According to US20160237158A1, “Methods and Compositions for Targeting Tumor Microenvironment and for preventing Metastasis” (INSTITUT NATIONAL DE LA SANTÉ ET DA LA RECHERCHE MÉDICALE …, priority 2013, published 2016):
# System: 410.4 cells
# Assay: Orthotopic tumours in BALB/c mice
# Assay type: in vivo, mouse
# Settings: 21-day oral gavage, 30 mg/kg/day
# Experimental: After embedding in paraffin, tissue sections from organotypic culture, skin from human breast and foreskin, and human skin carcinomas were prepared on slides using standard methods. Collagen assembly was evaluated by Sirius Red staining. Briefly, sections were first incubated with Weigert's iron hematoxylin (#C0231, Diapath, Martinengo, Italy) for 8 minutes and washed in distilled water for 10 minutes. Sections were next incubated with 1% Sirius Red in saturated picric acid for 1 hour. The slides were then washed twice with 0.5% acetic acid in distilled H2O, dehydrated and mounted using classical procedures. Sections were analysed using polarized light imaging and confocal laser microscopy with a LSM 5 EXCITER confocal microscope (Carl Zeiss, Germany). Collagen fibres thickness and length were quantified using ImageJ software.
# 6-8 weeks old female BALB/c mice were anesthetized using ketamine and xelazine by peritoneal injection. Skin was incised and 5.10^3 67NR or 410.4 cells (5.10^3) were injected into the right and left 4th mammary fat pad in 10 μl of PBS for each mouse. 67NR group consisted of 2 mice (4 primary tumours), 410.^4 group consisted of 7 mice (14 tumours) and 410.4 with additional treatment of Ruxolitinib (30 mg/kg/day) group consisted of 5 mice (10 tumours). Mice were sacrificed 30 days post-injection and Ruxolitinib treatment started 7 days after injection, primary tumours were removed and fixed in PBS containing 3.7% formalin for 8 hours, followed by was with PBS and transfer to 70% ethanol, and then embedded in paraffin, sectioned and stained with haematoxylin and eosin. Immunohistochemistry detection using anti-LIF, anti-p-STAT3 and anti-alpha-SMA antibodies was performed on paraffin sections following manufactures instructions.
# [1] = mice implanted with 401.4 cells
smiles,measurement,setting,value
"N#CCC(C1CCCC1)n1cc(-c2ncnc3[nH]ccc23)cn1 (centres unmarked) [Ruxolitinib, 3-Cyclopentyl-3-[4-(7H-pyrrolo[2,3-d]pyrimidin-4-yl)-1H-pyrazol-1-yl]propanenitrile]",STAT3 phosphorylation within the tumour microenvironment in vivo,[1],inhibited
same,αSMA staining,[1],without influencing
same,rates of invasion of the tumour cells,"mice implanted with 401.4 cells, FIG. 4B",significant reduced
same,Sirius Red staining and formation of collagen bundles,"mice implanted with 401.4 cells, FIG. 4C",reduced
same,LIF production,mice implanted with 410.4 cells,without influencing
